In data set [1] the test system is Mythimna separata. The data set can be described thus: Efficacy test against Mythimna separata (treated artificial feed). The format is in vivo. The following applies: 1 μl of Emulsion (I) (5% active ingredient) in 0.8 g artificial feed; second-instar larvae; 25° C.; fifth day. The protocol:
(§1) 5 parts of the compound of the present invention, 93.6 parts of dimethylformamide and 1.4 parts of polyoxyethylene alkyl aryl ether were mixed and dissolved to prepare Emulsion (I) including 5% of an active ingredient.
For the control, Emulsion (II) was prepared by mixing and dissolving 93.6 parts of dimethylformamide and 1.4 parts of polyoxyethylene alkyl aryl ether.
(§2) An insect mortality rate was calculated by the numerical equation shown below.
(§3) Insect mortality rate (%)={(Number of dead insects)/(Number of sample insects)}×100
0.8 g of a commercially available artificial feed (Insecta LFS, manufactured by Nosan Corporation) and 1 μl of Emulsion (I) were mixed thoroughly. Thereby, a test feed was obtained.
The test feed was placed in an amount of 0.2 g in each of the treatment areas of a plastic test container (volume: 1.4 ml). Subsequently, two second-instar larvae of Mythimna separata were inoculated into each treatment area, and the test container was sealed with a plastic lid in order to prevent the larvae from escaping. The sealed container was placed in a thermostatic chamber at 25° C., and the insect mortality rate and the amount of feed consumed were determined on the fifth day. The test was performed twice.
As the control areas, the insect mortality rate and the amount of feed consumed were determined in the same manner as that described in Test Example 1, with the exception of replacing Emulsion (I) with Emulsion (II).

The test system of data set [2] is Plutella xylostella. As to the kind of experiment: Efficacy test against Plutella xylostella (cabbage leaf dip). It is filed as in vivo. The following applies: foliar, 72 h, cabbage leaves soaked 30 seconds, second-instar larvae, 3 days after inoculation, read-out: insect mortality rate. The protocol:
as §1, §2, §3
Emulsion (I) was diluted with water so that the concentration of the compound of the present invention was 125 ppm. Cabbage leaves were soaked in the diluted liquid for 30 seconds. Subsequently, the cabbage leaves were put on Petri dishes, followed by inoculating 5 second-instar larvae of Plutella xylostella. The Petri dishes were placed in a thermostatic chamber at a temperature of 25° C. and humidity of 60%. Mortality was investigated 3 days after inoculation, and the insect mortality rate was calculated. The test was performed twice.

Data set [3] relates to Phyllotreta striolata. The data set can be described thus: Efficacy test against Phyllotreta striolata (spray on bok-choi seedlings). The settings on record: 168 h, sprayed on bok-choi seedlings, adults, 7 days after inoculation, read-out: insect mortality rate. It is filed as in vivo. The protocol: as §1, §2, §3
Emulsion (I) was diluted with water so that the concentration of the compound of the present invention was 125 ppm, to prepare a diluted liquid for testing. The aforementioned diluted liquid was sprayed on bok-choi seedlings (7th major leaf-development period) planted in No. 3 pots. After the bok-choi seedlings were subjected to air-drying, the seedlings were placed in plastic cups, followed by inoculating 10 adult Phyllotreta striolata. The plastic cups were stored in a thermostatic chamber at a temperature of 25° C. and humidity of 65%. Mortality was investigated 7 days after inoculation, and the insect mortality rate was calculated. The test was performed twice.

For data set [4], the system named is Nilaparvata lugens. The data set can be described thus: Efficacy test against Nilaparvata lugens (rice seedling dip). The format is in vivo. The settings on record: 168 h, rice seedlings soaked 30 seconds, second-instar larvae, 7 days after inoculation, read-out: insect mortality rate. The procedure: as §1, §2, §3
Emulsion (I) was diluted with water so that the concentration of the compound of the present invention was 125 ppm. Rice seedlings were soaked in the diluted liquid for 30 seconds, and subjected to air-drying. Subsequently, the rice seedlings were placed in plastic cases, followed by inoculating 5 second-instar larvae of Nilaparvata lugens. The plastic cases were placed in a thermostatic chamber at a temperature of 25° C. and humidity of 65%. Mortality was investigated 7 days after inoculation, and the insect mortality rate was calculated. The test was performed twice.

For data set [5], the system named is Aphis craccivora. The data set can be described thus: Efficacy test against Aphis craccivora (spray on black-eyed pea plants). It is filed as in vivo. The settings on record: in Vigna unguiculata, 96 h, sprayed on black-eyed pea plants, nymphs, 4 days after spraying, read-out: insect mortality rate. The procedure:
as §1, §2, §3
Black-eyed pea plants were raised in No. 3 pots and the primary leaves were inoculated with nymphs of Aphis craccivora. Emulsion (I) was diluted with water so that the concentration of the compound of the present invention was 125 ppm. Subsequently, the aforementioned diluted liquid was sprayed on the black-eyed pea plants on which the nymphs of Aphis craccivora were parasitic. The aforementioned black-eyed pea plants were then placed in a thermostatic chamber with a temperature of 25° C. and humidity of 60%. Mortality was investigated 4 days after spraying was carried out, and the insect mortality rate of Aphis craccivora was calculated. The test was performed twice.

Structures are written as SMILES.

For `CCS(=O)(=O)c1cnc(-n2cccn2)nc1-c1nc2cc(C(F)(F)F)cnc2n1C` [A-20], the “insect mortality rate or amount of feed consumed relative to control area” value in data set [1] is “mortality rate against Mythimna separata was 100%, or the amount of feed consumed was 10% or less”.
With `CCS(=O)(=O)c1cnc(-n2ncnc2N)nc1-c1nc2cc(C(F)(F)F)cnc2n1C` [A-12, 1-(5-(ethylsulfonyl)-4-(3-methyl-6-(trifluoromethyl)-3H-imidazo[4,5-b]pyridin-2-yl)pyrimidin-2-yl)-1H-1,2,4-triazol-5-amine], in data set [1], the “insect mortality rate or amount of feed consumed relative to control area” value was “mortality rate against Mythimna separata was 100%, or the amount of feed consumed was 10% or less”. The mortality at 125 ppm in data set [2], in data set [3] and in data set [4] was not below 80% each time.
With `CCS(=O)(=O)c1cnc(NC)nc1-c1nc2cc(C(F)(F)F)cnc2n1C` [A-16], the “insect mortality rate or amount of feed consumed relative to control area” value in data set [1] is “mortality rate against Mythimna separata was 100%, or the amount of feed consumed was 10% or less”.
In the case of `CCOC(=O)c1cnn(-c2ncc(S(=O)(=O)CC)c(-c3nc4cc(C(F)(F)F)cnc4n3C)n2)c1N` [A-26, ethyl 5-amino-1-(5-(ethylsulfonyl)-4-(3-methyl-6-(trifluoromethyl)-3H-imidazo[4,5-b]pyridin-2-yl)pyrimidin-2-yl)-1H-pyrazole-4-carboxylate], in data set [1], the “insect mortality rate or amount of feed consumed relative to control area” value is reported as “mortality rate against Mythimna separata was 100%, or the amount of feed consumed was 10% or less”. Besides, the mortality at 125 ppm in data set [2], in data set [5] and in data set [3] was not below 80% in each case.
`CCS(=O)(=O)c1cnc(NCCN)nc1-c1nc2cc(C(F)(F)F)cnc2n1C` [A-28]: in data set [1], the “insect mortality rate or amount of feed consumed relative to control area” value is reported as “mortality rate against Mythimna separata was 100%, or the amount of feed consumed was 10% or less”.
On the same count and under the same terms, the entry for `CCS(=O)(=O)c1cnc(-c2ncn(C)n2)nc1-c1nc2cc(C(F)(F)F)cnc2n1C` [A-5] is “mortality rate against Mythimna separata was 100%, or the amount of feed consumed was 10% or less”.
Turning to `CCS(=O)(=O)c1cnc(-c2ncccn2)nc1-c1nc2cc(C(F)(F)F)cnc2n1C` [A-2, 2-(5-(ethylsulfonyl)-[2,2′-bipyrimidin]-4-yl)-3-methyl-6-(trifluoromethyl)-3H-imidazo[4,5-b]pyridine], in data set [1], the “insect mortality rate or amount of feed consumed relative to control area” value is listed as “mortality rate against Mythimna separata was 100%, or the amount of feed consumed was 10% or less”. Moreover, the mortality at 125 ppm in data set [2], in data set [5], in data set [3] and in data set [4] was not below 80% each time.
For `CCS(=O)(=O)c1cnc(-n2nccc2N)nc1-c1nc2cc(C(F)(F)F)cnc2n1C` [A-27, 1-(5-(ethylsulfonyl)-4-(3-methyl-6-(trifluoromethyl)-3H-imidazo[4,5-b]pyridin-2-yl)pyrimidin-2-yl)-1H-pyrazol-5-amine], the melting point (in general, the temperature, or range, at which the solid turns liquid) lay within 247 to 249 °C.
Turning to `CCS(=O)(=O)c1cnc(OC)nc1-c1nc2cc(C(F)(F)F)cnc2n1C` [A-23], the “insect mortality rate or amount of feed consumed relative to control area” value in data set [1] was “mortality rate against Mythimna separata was 100%, or the amount of feed consumed was 10% or less”.
`CCS(=O)(=O)c1cnc(-c2ncccn2)nc1-c1nc2cc([S+]([O-])C(F)(F)F)ccc2o1` (stereo not drawn) [A-8, 2-(5-(ethylsulfonyl)-[2,2′-bipyrimidin]-4-yl)-5-((trifluoromethyl)sulfinyl)benzo[d]oxazole] had a melting point of 192 to 195 °C.
In the case of `CCS(=O)(=O)c1cnc(-n2ccc(N)n2)nc1-c1nc2cc(C(F)(F)F)cnc2n1C` [A-25], the “insect mortality rate or amount of feed consumed relative to control area” value in data set [1] is on record as “mortality rate against Mythimna separata was 100%, or the amount of feed consumed was 10% or less”.
Regarding `CCS(=O)(=O)c1cnc(NN)nc1-c1nc2cc(C(F)(F)F)cnc2n1C` [A-24, 2-(5-(ethylsulfonyl)-2-hydrazineylpyrimidin-4-yl)-3-methyl-6-(trifluoromethyl)-3H-imidazo[4,5-b]pyridine], the melting point lay in the range of 227 to 229 °C.
Same read-out and setting: with `CCS(=O)(=O)c1cnc(-c2ncccn2)nc1-c1nc2cc(SC(F)(F)F)ccc2o1` [A-7, 2-(5-(ethylsulfonyl)-[2,2′-bipyrimidin]-4-yl)-5-((trifluoromethyl)thio)benzo[d]oxazole] the figure was 223 to 225 °C.
`CCS(=O)(=O)c1cnc(-c2ncccn2)nc1-c1nc2cc(S(=O)(=O)C(F)(F)F)ccc2o1` [A-9, 2-(5-(ethylsulfonyl)-[2,2′-bipyrimidin]-4-yl)-5-((trifluoromethyl)sulfonyl)benzo[d]oxazole] yielded a melting point of 118 to 124 °C.
On to `CCS(=O)(=O)c1cnc(N(C)C)nc1-c1nc2cc(C(F)(F)F)cnc2n1C` [A-17], for which the “insect mortality rate or amount of feed consumed relative to control area” value in data set [1] is on record as “mortality rate against Mythimna separata was 100%, or the amount of feed consumed was 10% or less”.
On the same count and under the same terms, the entry for `CCS(=O)(=O)c1cnc(N)nc1-c1nc2cc(SC(F)(F)F)ccc2o1` [A-10] is “mortality rate against Mythimna separata was 100%, or the amount of feed consumed was 10% or less”; for `CCS(=O)(=O)c1cnc(N)nc1-c1nc2cc(C(F)(F)F)cnc2n1C` [A-13] it is “mortality rate against Mythimna separata was 100%, or the amount of feed consumed was 10% or less”.
